Three molecules from patent US20220009920A1 (GB005, Inc., priority 2020, published 2022) can be followed below.

Holding throughout (experiment): Large panel kinase profiling
Assay type in all cases: biochemical
Details in all cases: 1 μM test article, 1 mM ATP

The target of one test is BRAF(V599E) (Homo sapiens, UniProt P15056, V600E). The procedure, abridged:
(§1)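 At 30° C., kinases turned over a CSox-Sensor peptide substrate with 1 mM ATP while 1 μM test article was present. Progress was followed by kinetic fluorescence readings.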

The target in another test is T1, MAP4K3/GLK (Homo sapiens, UniProt Q8IVH8).
T1 construct: AssayQuant Technologies, Inc. (service provider)
T1 sequence (Q8IVH8 1-894): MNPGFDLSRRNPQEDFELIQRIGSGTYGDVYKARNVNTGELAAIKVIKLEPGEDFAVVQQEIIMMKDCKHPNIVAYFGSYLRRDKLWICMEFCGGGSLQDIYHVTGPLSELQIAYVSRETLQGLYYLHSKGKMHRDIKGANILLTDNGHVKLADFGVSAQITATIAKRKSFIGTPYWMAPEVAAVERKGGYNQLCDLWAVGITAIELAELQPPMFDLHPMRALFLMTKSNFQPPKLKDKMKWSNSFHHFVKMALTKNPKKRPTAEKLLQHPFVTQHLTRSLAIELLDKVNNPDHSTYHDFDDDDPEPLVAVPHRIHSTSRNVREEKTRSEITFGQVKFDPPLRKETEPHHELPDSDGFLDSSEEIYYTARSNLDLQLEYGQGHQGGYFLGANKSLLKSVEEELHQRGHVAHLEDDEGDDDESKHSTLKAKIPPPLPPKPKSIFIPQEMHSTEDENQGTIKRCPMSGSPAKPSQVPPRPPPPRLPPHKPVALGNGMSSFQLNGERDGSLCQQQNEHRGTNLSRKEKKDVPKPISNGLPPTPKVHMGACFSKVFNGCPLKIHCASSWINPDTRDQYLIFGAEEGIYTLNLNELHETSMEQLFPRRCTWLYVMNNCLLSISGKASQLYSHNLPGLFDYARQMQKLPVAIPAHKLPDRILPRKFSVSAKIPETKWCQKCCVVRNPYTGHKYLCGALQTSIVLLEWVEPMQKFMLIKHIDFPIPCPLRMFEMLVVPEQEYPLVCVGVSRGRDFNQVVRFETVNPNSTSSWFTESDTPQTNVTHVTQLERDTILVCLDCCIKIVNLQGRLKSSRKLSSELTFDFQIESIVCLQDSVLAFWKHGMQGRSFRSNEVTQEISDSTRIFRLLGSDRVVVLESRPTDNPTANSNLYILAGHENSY
The procedure, abridged:
as §1

Another test has as its target NTRK3/TRKC (Homo sapiens, UniProt Q16288). The procedure, abridged: as §1
In the next test the target is T2, PRKD1 (Homo sapiens, UniProt Q15139).
T2 sequence (Q15139 1-912): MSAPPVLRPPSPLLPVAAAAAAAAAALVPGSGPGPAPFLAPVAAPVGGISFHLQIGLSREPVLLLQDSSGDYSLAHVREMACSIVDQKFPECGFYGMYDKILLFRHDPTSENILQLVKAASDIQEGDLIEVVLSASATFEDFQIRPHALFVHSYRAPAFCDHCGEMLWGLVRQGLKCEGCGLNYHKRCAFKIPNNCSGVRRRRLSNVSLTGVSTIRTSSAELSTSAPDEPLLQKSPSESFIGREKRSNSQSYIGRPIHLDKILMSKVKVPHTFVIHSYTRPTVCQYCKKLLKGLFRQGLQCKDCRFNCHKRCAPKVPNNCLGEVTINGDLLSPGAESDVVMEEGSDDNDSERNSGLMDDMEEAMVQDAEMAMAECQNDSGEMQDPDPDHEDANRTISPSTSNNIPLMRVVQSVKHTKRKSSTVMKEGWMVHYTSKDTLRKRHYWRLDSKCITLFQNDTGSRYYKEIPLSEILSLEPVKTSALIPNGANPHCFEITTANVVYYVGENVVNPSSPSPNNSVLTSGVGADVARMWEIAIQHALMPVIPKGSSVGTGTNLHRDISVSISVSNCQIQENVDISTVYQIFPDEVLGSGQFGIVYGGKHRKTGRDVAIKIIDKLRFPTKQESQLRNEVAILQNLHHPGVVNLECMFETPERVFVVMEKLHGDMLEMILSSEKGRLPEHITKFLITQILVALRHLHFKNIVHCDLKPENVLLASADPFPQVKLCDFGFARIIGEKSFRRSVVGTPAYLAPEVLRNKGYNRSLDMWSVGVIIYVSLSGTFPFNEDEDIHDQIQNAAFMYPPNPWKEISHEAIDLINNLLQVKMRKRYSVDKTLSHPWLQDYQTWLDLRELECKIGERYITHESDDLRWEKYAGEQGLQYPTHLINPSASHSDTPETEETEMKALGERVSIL
The procedure, abridged:
as §1

The target in the next test is T3, SK2 (Homo sapiens, UniProt Q9H0K1).
T3 construct: AssayQuant Technologies, Inc. (contract assay)
T3 sequence (Q9H0K1 whole entry): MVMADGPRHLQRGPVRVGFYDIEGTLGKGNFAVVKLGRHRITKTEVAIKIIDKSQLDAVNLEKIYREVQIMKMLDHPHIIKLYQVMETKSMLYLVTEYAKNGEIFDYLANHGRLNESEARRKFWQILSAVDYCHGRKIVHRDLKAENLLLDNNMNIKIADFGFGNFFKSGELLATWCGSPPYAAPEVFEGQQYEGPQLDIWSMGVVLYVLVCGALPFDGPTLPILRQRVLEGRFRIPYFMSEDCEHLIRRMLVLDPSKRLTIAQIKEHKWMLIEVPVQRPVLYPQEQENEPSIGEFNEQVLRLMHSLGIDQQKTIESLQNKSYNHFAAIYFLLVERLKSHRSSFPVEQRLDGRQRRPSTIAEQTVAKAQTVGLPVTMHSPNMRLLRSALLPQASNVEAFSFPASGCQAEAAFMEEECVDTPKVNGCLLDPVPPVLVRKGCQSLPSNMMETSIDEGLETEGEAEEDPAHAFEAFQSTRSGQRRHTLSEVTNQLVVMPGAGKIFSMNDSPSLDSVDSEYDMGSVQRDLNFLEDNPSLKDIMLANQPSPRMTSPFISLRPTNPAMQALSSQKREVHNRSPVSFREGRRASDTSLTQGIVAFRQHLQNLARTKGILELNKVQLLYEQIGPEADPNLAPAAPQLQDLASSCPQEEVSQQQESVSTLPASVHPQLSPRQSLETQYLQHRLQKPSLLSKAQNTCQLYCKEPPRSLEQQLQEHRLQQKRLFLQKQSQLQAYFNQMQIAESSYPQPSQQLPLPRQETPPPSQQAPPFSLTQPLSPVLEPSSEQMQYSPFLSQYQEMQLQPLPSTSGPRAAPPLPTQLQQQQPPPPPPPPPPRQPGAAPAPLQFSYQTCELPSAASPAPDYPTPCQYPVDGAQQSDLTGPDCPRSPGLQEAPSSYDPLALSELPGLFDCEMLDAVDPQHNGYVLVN
The procedure, abridged: as §1

A further test concerns the target T4, TXK (Homo sapiens, UniProt P42681).
T4 construct: AssayQuant Technologies, Inc. (contract laboratory that ran the panel)
T4 sequence (P42681 1-527): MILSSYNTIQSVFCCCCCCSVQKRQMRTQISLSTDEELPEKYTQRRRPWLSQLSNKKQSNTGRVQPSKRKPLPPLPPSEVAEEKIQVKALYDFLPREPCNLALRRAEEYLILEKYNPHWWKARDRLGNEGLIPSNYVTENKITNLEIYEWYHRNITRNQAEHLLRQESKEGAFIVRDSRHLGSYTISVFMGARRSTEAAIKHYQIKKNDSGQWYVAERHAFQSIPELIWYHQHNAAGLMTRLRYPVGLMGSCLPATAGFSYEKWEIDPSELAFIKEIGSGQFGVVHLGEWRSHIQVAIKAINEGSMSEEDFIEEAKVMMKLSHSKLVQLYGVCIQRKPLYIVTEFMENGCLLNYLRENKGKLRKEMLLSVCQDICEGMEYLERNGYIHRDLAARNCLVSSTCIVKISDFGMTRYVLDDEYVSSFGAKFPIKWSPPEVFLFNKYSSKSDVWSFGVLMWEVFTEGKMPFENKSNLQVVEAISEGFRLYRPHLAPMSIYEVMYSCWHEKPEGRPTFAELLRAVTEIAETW
The procedure, abridged:
as §1

BRAF(V599E), sequence (P15056 whole entry V600E): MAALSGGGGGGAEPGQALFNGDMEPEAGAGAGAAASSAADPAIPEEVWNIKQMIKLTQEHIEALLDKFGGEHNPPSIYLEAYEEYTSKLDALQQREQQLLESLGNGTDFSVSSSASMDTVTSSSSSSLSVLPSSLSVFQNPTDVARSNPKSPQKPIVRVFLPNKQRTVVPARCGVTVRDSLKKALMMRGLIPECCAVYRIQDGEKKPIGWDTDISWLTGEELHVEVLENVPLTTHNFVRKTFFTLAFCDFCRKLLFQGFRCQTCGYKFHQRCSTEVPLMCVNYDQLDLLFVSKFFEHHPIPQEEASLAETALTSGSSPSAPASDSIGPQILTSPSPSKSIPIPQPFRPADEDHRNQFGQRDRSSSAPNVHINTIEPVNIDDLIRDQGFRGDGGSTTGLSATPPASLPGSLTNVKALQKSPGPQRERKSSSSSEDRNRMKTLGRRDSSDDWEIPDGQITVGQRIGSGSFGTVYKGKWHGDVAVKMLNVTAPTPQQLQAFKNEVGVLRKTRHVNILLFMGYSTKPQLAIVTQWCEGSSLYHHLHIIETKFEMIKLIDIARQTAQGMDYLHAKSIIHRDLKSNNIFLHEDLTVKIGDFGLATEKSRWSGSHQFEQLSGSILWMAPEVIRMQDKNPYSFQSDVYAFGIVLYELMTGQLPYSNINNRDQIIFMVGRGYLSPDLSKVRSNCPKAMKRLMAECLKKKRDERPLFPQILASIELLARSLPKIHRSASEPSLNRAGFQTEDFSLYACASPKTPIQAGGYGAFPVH
NTRK3/TRKC, sequence (Q16288 32-839): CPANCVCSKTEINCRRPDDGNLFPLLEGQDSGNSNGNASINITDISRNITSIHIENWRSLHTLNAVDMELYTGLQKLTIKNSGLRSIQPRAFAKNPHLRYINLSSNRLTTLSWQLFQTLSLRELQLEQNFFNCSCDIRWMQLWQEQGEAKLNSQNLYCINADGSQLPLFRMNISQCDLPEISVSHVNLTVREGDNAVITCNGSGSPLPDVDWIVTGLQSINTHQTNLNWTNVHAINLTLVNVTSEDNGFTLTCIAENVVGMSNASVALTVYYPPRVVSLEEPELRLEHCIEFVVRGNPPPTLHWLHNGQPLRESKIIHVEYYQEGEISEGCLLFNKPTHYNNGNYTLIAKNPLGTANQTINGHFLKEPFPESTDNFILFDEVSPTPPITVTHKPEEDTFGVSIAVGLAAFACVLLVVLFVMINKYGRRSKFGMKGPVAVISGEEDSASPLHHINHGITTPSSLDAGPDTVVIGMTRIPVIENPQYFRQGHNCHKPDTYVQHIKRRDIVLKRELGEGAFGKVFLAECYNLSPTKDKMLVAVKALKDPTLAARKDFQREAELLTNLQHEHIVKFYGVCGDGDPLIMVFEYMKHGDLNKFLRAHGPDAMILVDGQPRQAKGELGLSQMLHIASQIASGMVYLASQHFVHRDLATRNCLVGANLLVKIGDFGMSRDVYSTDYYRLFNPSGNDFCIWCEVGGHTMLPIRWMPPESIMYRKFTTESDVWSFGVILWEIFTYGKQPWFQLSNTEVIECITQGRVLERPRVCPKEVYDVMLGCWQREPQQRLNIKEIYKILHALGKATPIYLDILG

In general, inhibition refers to the change of the read-out against control, counted positive when it falls. Take `C=CC(=O)N1CCC[C@@H](c2c(F)cc(C(N)=O)c3[nH]c4c(c23)CCC4)C1` [Compound 10-2, (S)-8-(1-acryloylpiperidin-3-yl)-7-fluoro-1,2,3,4-tetrahydrocyclo-penta[b]indole-5-carboxamide]: the inhibition at 1 µM is 4.3% on BRAF(V599E); 5% against MAP4K3/GLK; 2.9% at NTRK3/TRKC; -24.2% against PRKD1; 23.9% at SK2; 71% on TXK.

Take `C=CC(=O)N1CCCC(c2c(F)cc(C(N)=O)c3[nH]c4c(c23)CCCCC4)C1` (single isomer, unassigned) [Compound 5-6]: the inhibition at 1 µM is -13.2% at BRAF(V599E); -7.3% against MAP4K3/GLK; -25.7% at NTRK3/TRKC; -6.6% on PRKD1; -0.1% at SK2; 74.7% against TXK.

With `C=CC(=O)N1CCC[C@@H](c2c(F)cc(C(N)=O)c3[nH]c4c(c23)CC2(CC4)CC2)C1` [Compound 6-2, (S)-5-(1-acryloylpiperidin-3-yl)-6-fluoro-1,2,4,9-tetrahydrospiro[carbazole-3,1′-cyclopropane]-8-carboxamide], the inhibition at 1 µM on BRAF(V599E) is -4.9%; at MAP4K3/GLK it was 6.2%; against NTRK3/TRKC it was 5.7%; on PRKD1, -16%; at SK2, 7.7%; at TXK it was 59.1%.
